Literature values in patent US20170189443A1, “COMPOSITIONS AND METHODS FOR TREATMENT OF DISEASES AND CONDITIONS EMPLOYING ORAL ADMINISTRATION OF SODIUM PENTOSAN POLYSULFATE AND OTHER PENTOSAN POLYSULFATE SALTS” (URIGEN PHARMACEUTICALS, INC., priority 2014, published 2017).
Like-named read-outs stand apart in the source and are kept apart here.

Experiments:
interstitial cystitis [1] = conditions: intravesical instillations
[2] = oral administration
[3] = tritiated pentosan polysulfate, healthy human volunteers, Simon et al. 2005
interstitial cystitis [4] = conditions: intravesical

C[S+](C)[O-] [DMSO, dimethylsulfoxide]
IC patients treated with benefit (interstitial cystitis [1]): ~50%

sodium pentosan polysulfate
oral availability [2]: 2-6% | excreted through urine [3]: 6% | excreted unchanged in feces [3]: more than 94%

heparin
patients treated in whom the agent is effective (interstitial cystitis [4]): approximately 50%

O=S(=O)(O)CCS [Mesnex, mesna]
frequency of adverse events (all AEs) (IV): 85% | frequency of adverse events (all AEs) (oral): 89%
